# Test system: 695427-040-R-J1-PDC complex spheroids, viability percent T/C
# Assay: Anticancer human tumor 695427-040-R-J1-PDC patient-derived colon adenocarcinoma cell line growth inhibition [GQUAD]
# Conditions: for IC50: curve of first compound; for viability, T/C: stronger effect = lower value
# Source text: DNA G-quadruplex Stabilizer Agents in Combinations in Complex Spheroids
# A high-throughput screen of multi-cell type tumor spheroids was designed to identify active combinations of DNA G-quadruplex stabilizer agents and targeted small molecules. Complex spheroids include a stromal component modeled by human endothelial cells (HUVEC) and fibroblasts modeled by human mesenchymal stem cells (MSCs). The concentration ranges selected for each drug and investigational agent were based upon clinically achievable concentrations if the clinical Cmax of the agent was known.
# Compounds. The drugs and investigational agents: pidnarulex (CX-5461; NSC782164), APTO-253 (NSC789042), BRACO-19 (NSC847499), peposertib (NSC802822), ceralasertib (NSC780249), elimusertib (NSC800525), camonsertib (NSC841442), AZD-1390 (NSC803789), olaparib (NSC753686), talazoparib (NSC767125), ART-558 (NSC835418), sotorasib (NSC818433), MRTX-1133 (NSC836407), SN-38 (NSC673596), topotecan (NSC609699), etoposide (NSC141540), doxorubicin (NSC123127), gemcitabine (NSC613327), 5-fluorouracil (NSC19893), paclitaxel (NSC125973), vemurafenib (NSC761431), panobinostat (NSC761190), R-306465 (JNJ-16241199; NSC773264), adavosertib (NSC754352), TP-3654 (NSC805149), carboplatin (NSC241240), KSQ-4279 (NSC840948), and staurosporine (NSC755774) were obtained from the National Cancer Institute (NCI) Developmental Therapeutics Program Chemical Repository (34). The FDA-approved anticancer drug set is available from the NCI Developmental Therapeutics Program. […] The stock solutions were prepared in dimethyl sulfoxide (DMSO, Sigma-Aldrich, St. Louis, MO, cat. D2650) at 800-fold the tested concentration and stored at -70 degrees C prior to their use. All drugs and investigational agents were tested over a range starting from a high concentration at or near the clinical Cmax and decreasing in half-log increments. If the clinical Cmax for an agent had not been determined, the highest concentration tested was 10 microM.
# 2.3 Cell Culture. All cells were maintained in an incubator at 37 degrees C and 5% CO2 with 95% humidity. The PDC lines were cultured according to standard operating procedures established by the NCI PDMR. All PDCs were thawed and cultured in Matrigel-coated flasks prepared with a working solution of 1X Ham's F-12 nutrient mix, without supplementation (Invitrogen, cat. 11765054), 100 U/mL penicillin-streptomycin (Invitrogen, cat. 15140122), and 2.5% Matrigel (Corning Inc., cat. 354248) for the first three passages. The 857933-349-R-J2-PDC line was cultured in 6C/Colon 1B media, which includes advanced DMEM/F-12 (Thermo Fisher Scientific, cat. 12634028), 10 mM HEPES (Thermo Fisher Scientific, cat. 15630080), 1X GlutaMAX supplement (Thermo Fisher Scientific, cat. 35050061), 0.1 mg/mL primocin (InvivoGen, cat. ant-pm-2), 10% defined fetal bovine serum, heat inactivated (HyClone Laboratories Inc., cat. SH30070.03HI), 50% L-WRN conditioned media (ATCC, cat. CRL-3276), 1.25 mM N-Acetyl-L-cysteine (Sigma-Aldrich, cat. A9165), 10 mM nicotinamide (Sigma-Aldrich, cat. N0636), 1X B-27 supplement (Thermo Fisher Scientific, cat. 17504044), 1X N-2 supplement (Thermo Fisher Scientific, cat. 17502048), 10 microM Y-27632 dihydrochloride (Tocris Bioscience, cat. 1254), and 50 ng/mL human EGF recombinant protein (Thermo Fisher Scientific, cat. PHG0311). The 485176-168-R4-J1-PDC line was cultured in Panc media, which includes all 6C/Colon 1B media components plus 100 ng/mL human FGF-10 (Thermo Fisher Scientific, cat. 100-26), 500 nM SB-431542 (Selleckchem, cat. S1067), and gastrin (Tocris, cat. 3006).
# […]
# [1] = second compound 0.0316 µM, first compound 0.0316 µM
# [2] = second compound 0.0316 µM, first compound 0.316 µM
# [3] = second compound 0.1 µM, first compound 0.0316 µM
# [4] = second compound 0.1 µM, first compound 0.316 µM
# [5] = second compound 0.316 µM, first compound 0.0316 µM
# [6] = second compound 0.316 µM, first compound 0.316 µM
# [7] = second compound 1 µM, first compound 0.0316 µM
# [8] = second compound 1 µM, first compound 0.316 µM
# [9] = second compound 3.16 µM, first compound 0.0316 µM
# [10] = second compound 3.16 µM, first compound 0.316 µM
# [11] = second compound 10 µM, first compound 0.0316 µM
# [12] = second compound 10 µM, first compound 0.316 µM
# 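Further: spheroids exposed to compounds for seven days before readout.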
structure (smiles),measurement,setting,value
CC[C@@]1(O)C(=O)OCc2c1cc1n(c2=O)Cc2cc3c(CN(C)C)c(O)ccc3nc2-1 + Cc1cnc(CNC(=O)c2c(=O)c3ccc(N4CCCN(C)CC4)nc3n3c2sc2ccccc23)cn1,IC50,second compound 0.0316 µM,> 316 nM
same,IC50,second compound 0.1 µM,> 316 nM
same,IC50,second compound 0.316 µM,> 316 nM
same,IC50,second compound 1 µM,> 316 nM
same,IC50,second compound 3.16 µM,< 0.999 nM
same,IC50,second compound 10 µM,< 0.999 nM
same,"viability, T/C","second compound 0.0316 µM, first compound 0.000999 µM",92.5%
same,"viability, T/C","second compound 0.0316 µM, first compound 0.00316 µM",82.5%
same,"viability, T/C","second compound 0.0316 µM, first compound 0.00999 µM",89.7%
same,"viability, T/C",[1],76%
same,"viability, T/C","second compound 0.0316 µM, first compound 0.0999 µM",82.8%
same,"viability, T/C",[2],79.2%
same,"viability, T/C","second compound 0.1 µM, first compound 0.000999 µM",95.5%
same,"viability, T/C","second compound 0.1 µM, first compound 0.00316 µM",74.4%
same,"viability, T/C","second compound 0.1 µM, first compound 0.00999 µM",90.8%
same,"viability, T/C",[3],67.7%
same,"viability, T/C","second compound 0.1 µM, first compound 0.0999 µM",91.6%
same,"viability, T/C",[4],77.5%
same,"viability, T/C","second compound 0.316 µM, first compound 0.000999 µM",73.2%
same,"viability, T/C","second compound 0.316 µM, first compound 0.00316 µM",66.6%
same,"viability, T/C","second compound 0.316 µM, first compound 0.00999 µM",69%
same,"viability, T/C",[5],61.1%
same,"viability, T/C","second compound 0.316 µM, first compound 0.0999 µM",80.5%
same,"viability, T/C",[6],65.6%
same,"viability, T/C","second compound 1 µM, first compound 0.000999 µM",56.4%
same,"viability, T/C","second compound 1 µM, first compound 0.00316 µM",69.8%
same,"viability, T/C","second compound 1 µM, first compound 0.00999 µM",58.3%
same,"viability, T/C",[7],65.7%
same,"viability, T/C","second compound 1 µM, first compound 0.0999 µM",70.9%
same,"viability, T/C",[8],63.8%
same,"viability, T/C","second compound 3.16 µM, first compound 0.000999 µM",45.8%
same,"viability, T/C","second compound 3.16 µM, first compound 0.00316 µM",56.8%
same,"viability, T/C","second compound 3.16 µM, first compound 0.00999 µM",54.8%
same,"viability, T/C",[9],53.5%
same,"viability, T/C","second compound 3.16 µM, first compound 0.0999 µM",65.7%
same,"viability, T/C",[10],48.4%
same,"viability, T/C","second compound 10 µM, first compound 0.000999 µM",28.6%
same,"viability, T/C","second compound 10 µM, first compound 0.00316 µM",51.3%
same,"viability, T/C","second compound 10 µM, first compound 0.00999 µM",54%
same,"viability, T/C",[11],49.4%
same,"viability, T/C","second compound 10 µM, first compound 0.0999 µM",48.8%
same,"viability, T/C",[12],40.2%
O=c1[nH]cc(F)c(=O)[nH]1 + Cc1cnc(CNC(=O)c2c(=O)c3ccc(N4CCCN(C)CC4)nc3n3c2sc2ccccc23)cn1,IC50,second compound 0.0316 µM,> 10000 nM
same,IC50,second compound 0.1 µM,> 10000 nM
same,IC50,second compound 0.316 µM,> 10000 nM
same,IC50,second compound 1 µM,> 10000 nM
same,IC50,second compound 3.16 µM,< 31.6 nM
same,IC50,second compound 10 µM,< 31.6 nM
same,"viability, T/C",[1],108%
same,"viability, T/C","second compound 0.0316 µM, first compound 0.1 µM",70.6%
same,"viability, T/C",[2],70.8%
same,"viability, T/C","second compound 0.0316 µM, first compound 1 µM",69.7%
same,"viability, T/C","second compound 0.0316 µM, first compound 3.16 µM",76%
same,"viability, T/C","second compound 0.0316 µM, first compound 10 µM",105%
same,"viability, T/C",[3],94.2%
same,"viability, T/C","second compound 0.1 µM, first compound 0.1 µM",79.4%
same,"viability, T/C",[4],72.4%
same,"viability, T/C","second compound 0.1 µM, first compound 1 µM",74.9%
same,"viability, T/C","second compound 0.1 µM, first compound 3.16 µM",94.2%
same,"viability, T/C","second compound 0.1 µM, first compound 10 µM",97.5%
same,"viability, T/C",[5],83.6%
same,"viability, T/C","second compound 0.316 µM, first compound 0.1 µM",67.5%
same,"viability, T/C",[6],80.9%
same,"viability, T/C","second compound 0.316 µM, first compound 1 µM",67.9%
same,"viability, T/C","second compound 0.316 µM, first compound 3.16 µM",86.4%
same,"viability, T/C","second compound 0.316 µM, first compound 10 µM",85.8%
same,"viability, T/C",[7],77.8%
same,"viability, T/C","second compound 1 µM, first compound 0.1 µM",58%
same,"viability, T/C",[8],63.8%
same,"viability, T/C","second compound 1 µM, first compound 1 µM",71.4%
same,"viability, T/C","second compound 1 µM, first compound 3.16 µM",80.1%
same,"viability, T/C","second compound 1 µM, first compound 10 µM",77.6%
same,"viability, T/C",[9],44.9%
same,"viability, T/C","second compound 3.16 µM, first compound 0.1 µM",53.1%
same,"viability, T/C",[10],59.9%
same,"viability, T/C","second compound 3.16 µM, first compound 1 µM",45.3%
same,"viability, T/C","second compound 3.16 µM, first compound 3.16 µM",72.2%
same,"viability, T/C","second compound 3.16 µM, first compound 10 µM",54.3%
same,"viability, T/C",[11],28.3%
same,"viability, T/C","second compound 10 µM, first compound 0.1 µM",54.2%
same,"viability, T/C",[12],48.8%
same,"viability, T/C","second compound 10 µM, first compound 1 µM",43.8%
same,"viability, T/C","second compound 10 µM, first compound 3.16 µM",54.6%
same,"viability, T/C","second compound 10 µM, first compound 10 µM",49.9%
